Results from ChEMBL document CHEMBL1201862, “PubChem BioAssay data set” (2004).
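Following 48 hours of exposure in 96-well plates, responses at five concentrations were used to interpolate endpoints linearly. Here, GI50 denotes the concentration required for 50% inhibition of growth.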 Calls of active or inactive are those of the source. Cut-off read from the data, not from the text of the source: active = GI50 up to about 1.1 µM and inactive = higher.

What was measured:
Experiment in all cases: NCI tumour cell line growth inhibition, 48 h
NCI-H522 = test system: NCI-H522
SNB-75 = test system: SNB-75
OVCAR-8 = test system: OVCAR-8
SR = test system: SR
HL-60 = test system: HL-60
HCC 2998 = test system: HCC 2998
K562 = test system: K562
MOLT-4 = test system: MOLT-4
SK-MEL-28 = test system: SK-MEL-28
M14 = test system: M14
SNB-19 = test system: SNB-19
SK-MEL-5 = test system: SK-MEL-5
NCI-H23 = test system: NCI-H23
SN12C = test system: SN12C
SK-OV-3 = test system: SK-OV-3
HT-29 = test system: HT-29
NCI/ADR-RES = test system: NCI/ADR-RES
PC-3 = test system: PC-3
MCF7 = test system: MCF7
Hs-578T = test system: Hs-578T

| SMILES | GI50 (NCI-H522) | GI50 (SNB-75) | GI50 (OVCAR-8) | GI50 (SR) | GI50 (HL-60) | GI50 (HCC 2998) | GI50 (K562) | GI50 (MOLT-4) | GI50 (SK-MEL-28) | GI50 (M14) | GI50 (SNB-19) | GI50 (SK-MEL-5) | GI50 (NCI-H23) | GI50 (SN12C) | GI50 (SK-OV-3) | GI50 (HT-29) | GI50 (NCI/ADR-RES) | GI50 (PC-3) | GI50 (MCF7) | GI50 (Hs-578T) |
| --- | --- | --- | --- | --- | --- | --- | --- | --- | --- | --- | --- | --- | --- | --- | --- | --- | --- | --- | --- | --- |
| COC(=O)c1cccc2cccc(C(=O)Nc3ccc(Cl)cc3)c12 | 13.7 µM (inactive) | > 100 µM (inactive) | > 79.8 µM (inactive) | 17.1 µM (inactive) | 0.706 µM (active) | 6.17 µM (inactive) | 0.142 µM (active) | 3.1 µM (inactive) | > 100 µM (inactive) | 0.951 µM (active) | > 100 µM (inactive) | 0.336 µM (active) | 12.7 µM (inactive) | > 100 µM (inactive) | > 100 µM (inactive) |  |  |  |  |  |
| Cc1cccc(C(C)C)c1NC(=O)C(=O)CC(=O)c1c(C)[n+]([O-])c2ccccc2[n+]1[O-] | 21.9 µM (inactive) | 28.5 µM (inactive) | 31.9 µM (inactive) | 28.2 µM (inactive) | 41.2 µM (inactive) | 34.3 µM (inactive) | > 100 µM (inactive) | 21.5 µM (inactive) | 36.1 µM (inactive) | 27.8 µM (inactive) | 31.8 µM (inactive) | 34 µM (inactive) | 18.8 µM (inactive) | 30.6 µM (inactive) | > 100 µM (inactive) | 34.4 µM (inactive) |  |  |  |  |
| CC(C)=CC(=O)Oc1ccc([N+](=O)[O-])cc1 | 2.18 µM (inactive) | > 100 µM (inactive) | > 100 µM (inactive) | > 100 µM (inactive) | 24.7 µM (inactive) | > 100 µM (inactive) | > 100 µM (inactive) | > 100 µM (inactive) |  | > 100 µM (inactive) | > 100 µM (inactive) | > 100 µM (inactive) | > 100 µM (inactive) | > 100 µM (inactive) | > 100 µM (inactive) | > 100 µM (inactive) |  |  |  |  |
| O=C1CCCc2ccc([N+](=O)[O-])c(O)c21 | 66.8 µM (inactive) | 45.6 µM (inactive) | > 100 µM (inactive) | 85.7 µM (inactive) | 92.5 µM (inactive) | > 100 µM (inactive) | > 100 µM (inactive) | > 100 µM (inactive) | > 100 µM (inactive) | > 100 µM (inactive) | 82.6 µM (inactive) | > 100 µM (inactive) | > 100 µM (inactive) | 65 µM (inactive) | > 100 µM (inactive) | > 100 µM (inactive) |  |  |  |  |
| C1CSCCSS[C@@H]2CCCCC2SC1 (stereo partly specified) | > 100 µM (inactive) | > 100 µM (inactive) | > 100 µM (inactive) | > 100 µM (inactive) | 56.6 µM (inactive) | > 100 µM (inactive) | > 100 µM (inactive) | > 100 µM (inactive) | > 100 µM (inactive) | > 100 µM (inactive) | > 100 µM (inactive) | > 100 µM (inactive) | > 100 µM (inactive) | > 100 µM (inactive) | > 100 µM (inactive) | > 100 µM (inactive) | > 100 µM (inactive) | > 100 µM (inactive) | > 100 µM (inactive) |  |
| CN(C)CCCSc1nc2ccccc2[nH]1 | > 100 µM (inactive) | > 100 µM (inactive) | > 100 µM (inactive) | > 100 µM (inactive) |  | > 100 µM (inactive) | > 100 µM (inactive) |  | > 100 µM (inactive) | > 100 µM (inactive) | > 100 µM (inactive) | > 100 µM (inactive) | > 100 µM (inactive) | > 100 µM (inactive) | > 100 µM (inactive) | > 100 µM (inactive) | > 100 µM (inactive) |  | > 100 µM (inactive) | > 100 µM (inactive) |
| N#C/C(=C/c1ccc([N+](=O)[O-])o1)c1ccccc1 | > 100 µM (inactive) | 97.7 µM (inactive) | > 100 µM (inactive) | > 100 µM (inactive) | > 100 µM (inactive) | > 100 µM (inactive) | > 100 µM (inactive) | > 100 µM (inactive) | > 100 µM (inactive) | > 100 µM (inactive) | > 100 µM (inactive) | > 100 µM (inactive) | > 100 µM (inactive) | > 100 µM (inactive) | > 100 µM (inactive) | > 100 µM (inactive) |  |  |  |  |
| C[N+](C)(C)CC1CCCC/C1=N\OC(=O)c1ccccc1 (stereo unspecified) | > 100 µM (inactive) | > 100 µM (inactive) | > 100 µM (inactive) | > 100 µM (inactive) |  | > 100 µM (inactive) | > 100 µM (inactive) | > 100 µM (inactive) | > 100 µM (inactive) | > 100 µM (inactive) | > 100 µM (inactive) | > 100 µM (inactive) | > 100 µM (inactive) | > 100 µM (inactive) | > 100 µM (inactive) | > 100 µM (inactive) |  |  |  |  |
| CN(C)c1ccc([S+]([O-])Nc2ccccc2)cc1 (stereo unspecified) | 13.2 µM (inactive) |  | 30.5 µM (inactive) | 31.6 µM (inactive) | 28.1 µM (inactive) | 34.6 µM (inactive) | 28.1 µM (inactive) | 53.8 µM (inactive) | > 100 µM (inactive) | 38.5 µM (inactive) | 60.1 µM (inactive) | 11.9 µM (inactive) | 45.7 µM (inactive) | > 100 µM (inactive) |  | 76.4 µM (inactive) | 22.1 µM (inactive) |  | 29.4 µM (inactive) | 45 µM (inactive) |
| CCN(CC)CCNC(=O)c1cc2cc(NC(=O)c3cc4cc(N)ccc4[nH]3)ccc2[nH]1 | 19.1 µM (inactive) |  | 32.2 µM (inactive) | 5.9 µM (inactive) |  | 17.1 µM (inactive) | 18.6 µM (inactive) | 13.2 µM (inactive) | > 100 µM (inactive) | 26.1 µM (inactive) | 49.3 µM (inactive) |  | 50.6 µM (inactive) | 39 µM (inactive) | 31.3 µM (inactive) | 30.6 µM (inactive) | > 100 µM (inactive) |  | 15.1 µM (inactive) | 35 µM (inactive) |
| CN1CCN(c2ccc3nc(-c4cc(O)c5c(nc(CO)n5C)c4O)[nH]c3n2)CC1 | 20.1 µM (inactive) | 20.6 µM (inactive) | 28.6 µM (inactive) |  | 16.4 µM (inactive) | 39.9 µM (inactive) | 28.8 µM (inactive) | 17.6 µM (inactive) | > 100 µM (inactive) | 34.7 µM (inactive) | 52.2 µM (inactive) |  | 64.3 µM (inactive) | 16.7 µM (inactive) | > 100 µM (inactive) | 31.3 µM (inactive) | > 100 µM (inactive) | 32.3 µM (inactive) |  | > 100 µM (inactive) |
| CC1(C)CC(=O)C/C(=N/c2ccc([N+](=O)[O-])cc2)C1 | 40.9 µM (inactive) | > 100 µM (inactive) | > 100 µM (inactive) | 57 µM (inactive) | 80.5 µM (inactive) | > 100 µM (inactive) | 35.6 µM (inactive) | 58.6 µM (inactive) | > 100 µM (inactive) | > 100 µM (inactive) |  | > 100 µM (inactive) | > 100 µM (inactive) | 71.8 µM (inactive) | > 100 µM (inactive) | 87.3 µM (inactive) |  |  |  |  |
| Cn1c(=O)c2c(nc3n2CCC(=O)N3CCCCl)n(C)c1=O |  | > 100 µM (inactive) | > 100 µM (inactive) | > 100 µM (inactive) | > 100 µM (inactive) | > 100 µM (inactive) | > 100 µM (inactive) | > 100 µM (inactive) | > 100 µM (inactive) | > 100 µM (inactive) | > 100 µM (inactive) | > 100 µM (inactive) | > 100 µM (inactive) | > 100 µM (inactive) | > 100 µM (inactive) | > 100 µM (inactive) | > 100 µM (inactive) | > 100 µM (inactive) |  | > 100 µM (inactive) |
| N#CC(c1ccc(Cl)cc1)c1cccc(C(C#N)c2ccc(Cl)cc2)n1 (stereo unspecified) | 17.6 µM (inactive) | 15.9 µM (inactive) | 55.1 µM (inactive) | 9.31 µM (inactive) | 12.1 µM (inactive) | 37.4 µM (inactive) | 6.35 µM (inactive) | 8.02 µM (inactive) | 17 µM (inactive) | 34.8 µM (inactive) | 26.5 µM (inactive) |  | 3.95 µM (inactive) | 59.3 µM (inactive) | 47.4 µM (inactive) | 19.1 µM (inactive) |  |  |  |  |
| O=C(CSc1nc(-c2ccccc2)c(-c2ccccc2)[nH]1)N/N=C/c1ccc(O)cc1 | 20.2 µM (inactive) | 19.7 µM (inactive) | 17.2 µM (inactive) | 16.4 µM (inactive) | 20 µM (inactive) | 19.6 µM (inactive) | 23.6 µM (inactive) | 15.7 µM (inactive) | 32.1 µM (inactive) | 19 µM (inactive) | 32.5 µM (inactive) |  | 3.76 µM (inactive) | 26.4 µM (inactive) | 24.8 µM (inactive) | 18.9 µM (inactive) |  |  |  |  |
| COC(=O)C(NC(=O)CSc1nnc(COc2ccc(Cl)cc2)n1-c1ccccc1)C(C)C (stereo unspecified) | 10.6 µM (inactive) | 14.6 µM (inactive) | 23.7 µM (inactive) | 1.08 µM (active) | 16.7 µM (inactive) | 18.6 µM (inactive) | 53.8 µM (inactive) | 21.6 µM (inactive) | 21.5 µM (inactive) | 21.9 µM (inactive) | 29.3 µM (inactive) |  | 25.4 µM (inactive) | 18.6 µM (inactive) | 37.2 µM (inactive) | 17 µM (inactive) | 22.6 µM (inactive) | 21.7 µM (inactive) | 40.7 µM (inactive) |  |
| NC1=C2C(Br)=CN([C@@H]3O[C@H](CO)[C@@H](O)[C@@H]3O)C2C(=O)N=N1 (stereo partly specified) | 6.05 µM (inactive) | 3.78 µM (inactive) | 0.577 µM (active) | 0.475 µM (active) | 0.223 µM (active) | 5.02 µM (inactive) | 6.67 µM (inactive) | 0.395 µM (active) | 7.73 µM (inactive) | 1.27 µM (inactive) | 43.1 µM (inactive) | 11.3 µM (inactive) | 5.58 µM (inactive) | 1.64 µM (inactive) | 30.5 µM (inactive) | 2.42 µM (inactive) |  |  |  |  |
